Experimental findings from patent publication US20250163026A1, “Deuterium-Enriched Nirmatrelvir as SARS-CoV-2 Mpro Inhibitor for the Treatment of COVID-19” (priority 2023, published 2025) are described below.

By inhibition is commonly meant the drop in the measured response relative to a control, in per cent.

The experiment concerns human coronavirus M^Pro. Briefly: Biochemical determination for human coronavirus M^pro assays. To be noted: at 30 μM, control compound, 1% DMSO. The method, then:
The respective human coronavirus M^Pro in assay buffer (20 mM Tris-HCl, pH 7.3, 100 mM NaCl, 1 mM EDTA, 5 mM TCEP) and 0.1% BSA is added to assay-ready plates containing test compound (compound the present invention, Formula I). The enzymatic reaction is then immediately initiated with the addition of 5 μL substrate in assay buffer. Initial rates are measured by following the fluorescence of the cleaved substrate using a Spectramax (Molecular Devices) fluorescence plate reader in the kinetic format.
Test compounds (compounds of the present invention, compounds of Formula I) are tested at final concentrations up to […] in 1% DMSO and compared to the broad-spectrum antiviral compound GC376 [Y. Kim, S. Lovell, et al, Broad-spectrum antivirals against 3C or 3C-like proteases of picornaviruses, noroviruses, and coronaviruses. J. Virol. […] The reaction is allowed to progress for 60 minutes at 23° C. after which the plate is read on a Molecular Devices Spectramax M2e reader at an Ex/Em of 340 nm/490 nm.
Percent inhibition values are calculated based on control wells containing DMSO only (0% inhibition) and wells containing a control compound (100% inhibition). […] Percent activity values are calculated based on control wells containing no compound (100% activity) and wells containing the broad-spectrum antiviral compound GC376 (0% activity). […]

Regarding `CC(C)C[C@H](NC(=O)OCc1ccccc1)C(=O)N[C@@H](C[C@@H]1CCNC1=O)C(O)S(=O)(=O)[O-].[Na+]` (stereo partly shown) [GC376], the inhibition was 100%.
